The record followed here is ChEMBL document CHEMBL3525928 (Drug Metab Dispos, 2011).

Holding throughout (format): ADME, cell-based
The target in series [1] is T1, OATP1B1 (Homo sapiens, UniProt Q9Y6L6).
T1 sequence (Q9Y6L6 whole entry): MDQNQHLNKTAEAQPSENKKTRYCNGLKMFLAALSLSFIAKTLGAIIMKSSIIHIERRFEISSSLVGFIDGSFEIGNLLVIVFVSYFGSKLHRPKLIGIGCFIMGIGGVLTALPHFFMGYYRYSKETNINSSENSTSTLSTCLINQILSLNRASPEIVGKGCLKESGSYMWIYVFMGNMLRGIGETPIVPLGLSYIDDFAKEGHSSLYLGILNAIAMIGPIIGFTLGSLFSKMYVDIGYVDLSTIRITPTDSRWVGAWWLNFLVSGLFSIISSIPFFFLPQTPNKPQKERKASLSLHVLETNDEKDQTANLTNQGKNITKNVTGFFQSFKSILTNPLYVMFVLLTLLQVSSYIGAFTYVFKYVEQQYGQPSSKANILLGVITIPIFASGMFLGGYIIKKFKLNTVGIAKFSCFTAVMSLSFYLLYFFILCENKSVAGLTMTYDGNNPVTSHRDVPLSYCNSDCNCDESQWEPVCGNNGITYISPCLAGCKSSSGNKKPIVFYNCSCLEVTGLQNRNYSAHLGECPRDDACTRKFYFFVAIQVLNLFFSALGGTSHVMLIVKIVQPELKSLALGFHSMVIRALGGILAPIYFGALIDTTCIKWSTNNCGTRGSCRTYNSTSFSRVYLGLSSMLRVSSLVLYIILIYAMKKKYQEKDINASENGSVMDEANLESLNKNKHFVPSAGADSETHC
Description: Drug uptake ratio assessed as enzyme-mediated uptake in HEK293 cells expressing human OATP1B1 at 1 uM at 37 degC for 3 mins by liquid scintillation spectroscopy relative to wild type.

Series [2] addresses T2, OATP2B1 (Homo sapiens, UniProt O94956).
T2 sequence (O94956 whole entry): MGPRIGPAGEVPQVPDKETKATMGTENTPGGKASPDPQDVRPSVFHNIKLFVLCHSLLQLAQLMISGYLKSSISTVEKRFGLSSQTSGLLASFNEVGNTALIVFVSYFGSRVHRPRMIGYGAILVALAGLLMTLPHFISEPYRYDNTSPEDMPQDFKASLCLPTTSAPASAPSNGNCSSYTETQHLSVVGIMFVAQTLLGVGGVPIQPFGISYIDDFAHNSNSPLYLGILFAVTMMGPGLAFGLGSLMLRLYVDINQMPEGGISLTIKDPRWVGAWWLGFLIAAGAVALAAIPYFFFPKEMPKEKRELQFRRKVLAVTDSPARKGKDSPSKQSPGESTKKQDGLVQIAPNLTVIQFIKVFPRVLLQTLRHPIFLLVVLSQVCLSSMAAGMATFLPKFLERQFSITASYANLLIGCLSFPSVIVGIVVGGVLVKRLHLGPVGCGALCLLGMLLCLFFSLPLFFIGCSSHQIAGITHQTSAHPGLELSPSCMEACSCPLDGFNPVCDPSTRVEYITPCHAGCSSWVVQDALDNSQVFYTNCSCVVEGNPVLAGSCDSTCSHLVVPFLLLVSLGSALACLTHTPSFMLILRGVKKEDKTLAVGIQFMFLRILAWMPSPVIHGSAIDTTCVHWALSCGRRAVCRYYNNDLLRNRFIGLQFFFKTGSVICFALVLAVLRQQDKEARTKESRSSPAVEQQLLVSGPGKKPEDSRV
Kind of series: Drug uptake ratio assessed as enzyme-mediated uptake in HEK293 cells expressing human OATP2B1 at 1 uM at 37 degC for 3 mins by liquid scintillation spectroscopy relative to wild type.

For series [3], the target named is T1, OATP1B1. Kind of series: Drug uptake ratio assessed as enzyme-mediated uptake in HEK293 cells expressing human OATP1B1 at 10 uM at 37 degC for 3 mins by liquid scintillation spectroscopy relative to wild type.
Series [4] has as its target T2, OATP2B1. Kind of series: Drug uptake ratio assessed as enzyme-mediated uptake in HEK293 cells expressing human OATP2B1 at 10 uM at 37 degC for 3 mins by liquid scintillation spectroscopy relative to wild type.
Series [5] addresses T3, OATP1B3 (Homo sapiens, UniProt Q9NPD5).
T3 sequence (Q9NPD5 whole entry): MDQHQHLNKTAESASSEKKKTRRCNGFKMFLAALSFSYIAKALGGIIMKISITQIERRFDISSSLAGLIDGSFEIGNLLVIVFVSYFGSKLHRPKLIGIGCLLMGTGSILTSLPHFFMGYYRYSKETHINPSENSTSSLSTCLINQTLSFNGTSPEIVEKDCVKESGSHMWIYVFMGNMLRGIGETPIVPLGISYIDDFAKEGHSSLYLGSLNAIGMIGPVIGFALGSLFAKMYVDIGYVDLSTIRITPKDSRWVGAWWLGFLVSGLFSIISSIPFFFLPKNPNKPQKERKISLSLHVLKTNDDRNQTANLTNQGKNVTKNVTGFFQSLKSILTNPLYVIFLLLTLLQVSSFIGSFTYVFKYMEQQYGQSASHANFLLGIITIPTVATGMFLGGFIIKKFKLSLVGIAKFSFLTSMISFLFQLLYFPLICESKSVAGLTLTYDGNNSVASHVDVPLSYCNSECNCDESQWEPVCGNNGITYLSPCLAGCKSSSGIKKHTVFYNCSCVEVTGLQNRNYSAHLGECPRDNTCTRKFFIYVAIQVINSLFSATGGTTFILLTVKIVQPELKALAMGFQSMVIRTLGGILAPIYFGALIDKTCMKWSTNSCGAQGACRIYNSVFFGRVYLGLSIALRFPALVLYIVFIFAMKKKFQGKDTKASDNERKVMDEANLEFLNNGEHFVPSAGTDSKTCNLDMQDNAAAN
Description: Drug uptake ratio assessed as enzyme-mediated uptake in HEK293 cells expressing human OATP1B3 at 1 uM at 37 degC for 3 mins by liquid scintillation spectroscopy relative to wild type.

In series [6] the target is T3, OATP1B3. Description: Drug uptake ratio assessed as enzyme-mediated uptake in HEK293 cells expressing human OATP1B3 at 10 uM at 37 degC for 3 mins by liquid scintillation spectroscopy relative to wild type.
Series [7] deals with T3, OATP1B3. Kind of series: Drug uptake ratio assessed as enzyme-mediated uptake in HEK293 cells expressing human OATP1B3 at 1 uM at 37 degC for 3 mins cells pretreated with sodium butyrate by liquid scintillation spectroscopy relative to wild type.
The target of series [8] is T3, OATP1B3. Description: Drug uptake ratio assessed as enzyme-mediated uptake in HEK293 cells expressing human OATP1B3 at 10 uM at 37 degC for 3 mins cells pretreated with sodium butyrate by liquid scintillation spectroscopy relative to wild type.

For the compound `C[C@]12CC[C@@H]3c4ccc(OS(=O)(=O)O)cc4CC[C@H]3[C@@H]1CCC2=O` [ESTRONE SULFURIC ACID], the uptake ratio at 0.05 h, 1 µM amounted to 6.7 at OATP1B1 [1] and 44 on OATP2B1 [2]. For the same compound, the uptake ratio at 0.05 h, 10 µM at OATP1B1 [3] turned out to be 2.2; on OATP2B1 [4], 50.

As for `Cc1ncc2n1-c1ccc(Cl)cc1C(c1ccccc1F)=NC2` [MIDAZOLAM], the uptake ratio at 0.05 h, 1 µM is 0.92 on OATP1B1 [1], 1.7 on OATP1B3 [5] and 2.1 on OATP1B3 [7]. The uptake ratio at 0.05 h, 10 µM on OATP1B1 [3] was determined as 0.92; at OATP1B3 [6], 1.7; at OATP1B3 [8] it was 1.9.

Turning to `CC(C)c1nc(N(C)S(C)(=O)=O)nc(-c2ccc(F)cc2)c1/C=C/[C@@H](O)C[C@@H](O)CC(=O)O` [ROSUVASTATIN], the uptake ratio at 0.05 h, 1 µM at OATP1B1 [1] worked out at 3.4; on OATP1B3 [5] it was 35; on OATP2B1 [2] it was 6; on OATP1B3 [7] it was 16. Besides, the uptake ratio at 0.05 h, 10 µM at OATP1B1 [3] turned out to be 1.9; at OATP1B3 [6], 39; on OATP2B1 [4], 6.3; at OATP1B3 [8], 25.
